Bounds are passed on as bounds.

Six compounds from patent US20080312167A1, “4'' Amino Linked Macrolides Useful for the Treatment of Microbial Infections” (priority 2005, published 2008) can be followed below.

Holding throughout (experiment): MIC, standard broth dilution method in microtitre
Format in all cases: cell-based

One test concerns Haemophylus influenzae. The method, then:
(§1) Using a standard broth dilution method in microtitre, compounds were tested for antibacterial activity.
(§2) The MIC (μg/ml) of test compounds against various organisms was determined including: Staphylococcus aureus, Streptococcus pneumoniae, Streptococcus pyogenes, Enterococcus faecalis, Haemophylus influenzae, Moraxella catarrhalis.

In a further test the test system is Moraxella catarrhalis. The method, then: as §1, §2
For test [1], the system named is sensitive Staphylococcus aureus. The method, then:
as §1, §2

The next test deals with Enterococcus faecalis. The method, then: as §1, §2

Regarding “4″(S)—N-(3-{2-[2-(3-Carboxy-7-chloro-1-cyclopropyl-4-oxo-1,4-dihydro-quinolin-6-ylamino)-ethoxy]-ethoxy}-propionyl}-azithromycin [Example 3]”, the MIC in the test with Haemophylus influenzae was no more than 0.125 µg/mL.

As for `CC[C@H]1OC(=O)[C@H](C)[C@@H](O[C@H]2C[C@@](C)(OC)[C@H](NC(=O)CCOCCOCCCc3ccc4c(c3)c(=O)c(C(=O)O)cn4CC)[C@H](C)O2)[C@H](C)[C@@H](O[C@@H]2O[C@H](C)C[C@H](N(C)C)[C@H]2O)[C@](C)(O)C[C@@H](C)CN(C)[C@H](C)[C@@H](O)[C@]1(C)O` (single isomer, unassigned) [Example 4], the MIC against Moraxella catarrhalis is no more than 2 µg/mL.

For `CC[C@H]1OC(=O)[C@H](C)[C@@H](O[C@H]2C[C@@](C)(OC)[C@H](NC(=O)CCOCCOCCCc3ccc4c(c3)c(=O)c(C(=O)O)cn4CCOC)[C@H](C)O2)[C@H](C)[C@@H](O[C@@H]2O[C@H](C)C[C@H](N(C)C)[C@H]2O)[C@](C)(O)C[C@@H](C)CN(C)[C@H](C)[C@@H](O)[C@]1(C)O` (single isomer, unassigned) [Example 6], the results for the MIC (in test [1]; against Moraxella catarrhalis) were no more than 0.5 µg/mL and no more than 2 µg/mL, respectively.

Turning to `CC[C@H]1OC(=O)[C@H](C)[C@@H](O[C@H]2C[C@@](C)(OC)[C@@H](NC(=O)CCOCCOCCCc3ccc4c(c3)c(=O)c(C(=O)O)cn4CC)[C@H](C)O2)[C@H](C)[C@@H](O[C@@H]2O[C@H](C)C[C@H](N(C)C)[C@H]2O)[C@](C)(O)C[C@@H](C)CN(C)[C@H](C)[C@@H](O)[C@]1(C)O` (single isomer, unassigned) [Example 7], the MIC in the test with Enterococcus faecalis is no more than 0.125 µg/mL; in test [1], no more than 0.5 µg/mL; against Moraxella catarrhalis, no more than 2 µg/mL.

On to `CC[C@H]1OC(=O)[C@H](C)[C@@H](O[C@H]2C[C@@](C)(OC)[C@@H](NC(=O)CCOCCOCCCc3ccc4c(c3)c(=O)c(C(=O)O)cn4C3CC3)[C@H](C)O2)[C@H](C)[C@@H](O[C@@H]2O[C@H](C)C[C@H](N(C)C)[C@H]2O)[C@](C)(O)C[C@@H](C)CN(C)[C@H](C)[C@@H](O)[C@]1(C)O` (single isomer, unassigned) [Example 8], for which the MIC against Enterococcus faecalis was no more than 0.125 µg/mL; in test [1] it was no more than 0.5 µg/mL; against Moraxella catarrhalis, no more than 2 µg/mL.

As for `CC[C@H]1OC(=O)[C@H](C)[C@@H](O[C@H]2C[C@@](C)(OC)[C@H](NC(=O)CCOCCOCCCc3ccc4c(c3)c(=O)c(C(=O)O)cn4C3CC3)[C@H](C)O2)[C@H](C)[C@@H](O[C@@H]2O[C@H](C)C[C@H](N(C)C)[C@H]2O)[C@](C)(O)C[C@@H](C)CN(C)[C@H](C)[C@@H](O)[C@]1(C)O` (single isomer, unassigned) [Example 9], the MIC in test [1] is no more than 0.5 µg/mL; with Moraxella catarrhalis, no more than 2 µg/mL.
